Each structure is given as a SMILES string.

In one test the target is T1, TYRO3 (455-end) (Homo sapiens, UniProt Q06418).
T1 construct: TYRO3 (455-end); purchased SignalChem, Canada
T1 sequence (Q06418 455-890 limits assumed): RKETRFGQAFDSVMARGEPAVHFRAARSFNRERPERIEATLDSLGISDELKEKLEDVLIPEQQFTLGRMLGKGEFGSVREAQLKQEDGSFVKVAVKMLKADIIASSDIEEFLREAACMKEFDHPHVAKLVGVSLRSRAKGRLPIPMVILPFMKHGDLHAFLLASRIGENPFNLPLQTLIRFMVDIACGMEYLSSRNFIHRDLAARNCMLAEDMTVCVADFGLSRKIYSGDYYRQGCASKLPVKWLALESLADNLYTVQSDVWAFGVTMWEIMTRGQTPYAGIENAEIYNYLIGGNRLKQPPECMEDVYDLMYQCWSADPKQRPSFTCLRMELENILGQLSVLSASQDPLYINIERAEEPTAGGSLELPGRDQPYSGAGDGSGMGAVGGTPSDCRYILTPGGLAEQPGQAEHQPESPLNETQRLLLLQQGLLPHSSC
Briefly: HTRF kinase activity biochemical assay, TYRO3.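 Also: biotinylated tyrosine kinase substrate phosphorylation detected via streptavidin-XL665 and Eu3+-cryptate anti-phospho antibody time-resolved fluorescence, read after 1 h detection at room temperature, 384-well format.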 Particulars: recombinant kinase, 10 uM ATP, 30 minutes pre-incubation; read-out: HTRF TYRO IC50. Background: In TR-FRET formats the signal depends on donor and acceptor labels being close together.

The target in another test is T2, human AXL (473-end) (Homo sapiens, UniProt P30530).
T2 construct: human AXL (473-end); purchased SignalChem, Canada
T2 sequence (P30530 473-894 limits assumed): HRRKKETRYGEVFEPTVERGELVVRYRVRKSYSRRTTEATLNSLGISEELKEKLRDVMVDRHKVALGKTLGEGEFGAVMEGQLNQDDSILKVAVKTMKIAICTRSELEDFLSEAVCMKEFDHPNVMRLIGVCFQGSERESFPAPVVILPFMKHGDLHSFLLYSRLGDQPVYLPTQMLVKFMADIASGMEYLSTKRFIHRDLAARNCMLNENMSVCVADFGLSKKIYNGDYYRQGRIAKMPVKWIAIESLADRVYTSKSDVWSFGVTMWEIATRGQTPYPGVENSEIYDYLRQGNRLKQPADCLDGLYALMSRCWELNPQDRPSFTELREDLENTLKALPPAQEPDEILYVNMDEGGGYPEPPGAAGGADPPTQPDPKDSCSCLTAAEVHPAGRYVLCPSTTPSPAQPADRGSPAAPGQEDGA
Briefly: HTRF kinase activity biochemical assay, AXL.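 Also: phosphorylation of a biotinylated tyrosine kinase substrate detected via Eu3+-cryptate anti-TK antibody and streptavidin-XL665, fluorescence read after a 1 h incubation at room temperature.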 The conditions noted are these: recombinant kinase, 10 uM ATP, 30 minutes pre-incubation; read-out: HTRF AXL IC50.

A further test addresses T3, human MER (528-end) (Homo sapiens, UniProt Q12866).
T3 construct: human MER (528-end); purchased Carnabio, Japan
T3 sequence (Q12866 528-999 limits assumed): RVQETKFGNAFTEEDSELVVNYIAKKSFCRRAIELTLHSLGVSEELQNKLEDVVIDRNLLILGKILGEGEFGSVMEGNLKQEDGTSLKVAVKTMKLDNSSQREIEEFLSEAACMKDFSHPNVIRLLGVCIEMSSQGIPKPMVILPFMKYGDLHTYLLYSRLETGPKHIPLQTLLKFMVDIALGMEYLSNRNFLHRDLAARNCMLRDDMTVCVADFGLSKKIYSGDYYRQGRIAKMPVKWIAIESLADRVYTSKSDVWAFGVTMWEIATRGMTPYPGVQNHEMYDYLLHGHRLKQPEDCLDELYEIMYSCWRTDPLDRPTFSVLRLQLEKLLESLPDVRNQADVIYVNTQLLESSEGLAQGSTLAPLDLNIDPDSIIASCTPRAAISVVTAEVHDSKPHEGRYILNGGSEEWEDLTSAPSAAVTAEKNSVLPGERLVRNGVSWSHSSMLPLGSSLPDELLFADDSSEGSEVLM
Briefly: HTRF kinase activity biochemical assay, MER.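 Also: phosphorylation of a biotin-tagged tyrosine kinase substrate detected by Eu3+-cryptate antibody and streptavidin-XL665 time-resolved fluorescence, read after 1 h at room temperature.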 Particulars: recombinant kinase, 10 uM ATP, 30 minutes pre-incubation; read-out: HTRF MERTK IC50.

By IC50 is commonly meant the concentration at which inhibition is half-maximal. For `Cn1cc(Nc2ncc(C3CN(c4nc5ccc(OCCC(C)(C)OC(=O)CN)cc5o4)C3)nc2C(N)=O)cn1` [Example 95, 4-{[2-(3-{6-carbamoyl-5-[(1-methyl-1H-pyrazol-4-yl)amino]pyrazin-2-yl}azetidin-1-yl)-1,3-benzoxazol-6-yl]oxy}-2-methylbutan-2-yl glycinate], the IC50 on TYRO3 (455-end) is 280 nM; at human AXL (473-end), 3 nM; at human MER (528-end), less than 1 nM.

For `Cn1cc(Nc2ncc(C3CN(c4nc5ccc(OCCCc6ccccc6)cc5o4)C3)nc2C(N)=O)cn1` [Example 60, 3-[(1-methyl-1H-pyrazol-4-yl)amino]-6-{1-[6-(3-phenylpropoxy)-1,3-benzoxazol-2-yl]azetidin-3-yl}pyrazine-2-carboxamide], the 50% inhibitory concentration (IC50) on TYRO3 (455-end) is 100 nM; at human AXL (473-end) it was 1 nM; on human MER (528-end) it was less than 1 nM.

Take `Cn1cc(Nc2ncc(C3CN(c4nc5ccc(CC(=O)N6CCC[C@@H]6C(F)(F)F)cc5o4)C3)nc2C(N)=O)cn1` [Example 81, 3-[(1-methyl-1H-pyrazol-4-yl)amino]-6-[1-(6-{2-oxo-2-[(2R)-2-(trifluoromethyl)pyrrolidin-1-yl]ethyl}-1,3-benzoxazol-2-yl)azetidin-3-yl]pyrazine-2-carboxamide]: the IC50 on TYRO3 (455-end) stood at 1070 nM; on human AXL (473-end), 3 nM; on human MER (528-end), 1 nM.

In the case of `Cn1cc(Nc2ncc(C3CN(c4nc5ccc(Br)cc5o4)C3)nc2C(N)=O)cn1` [Example 6A, 6-[1-(6-bromo-1,3-benzoxazol-2-yl)azetidin-3-yl]-3-[(1-methyl-1H-pyrazol-4-yl)amino]pyrazine-2-carboxamide], the IC50 was 60 nM on TYRO3 (455-end), 4 nM at human AXL (473-end) and less than 1 nM at human MER (528-end).

In the case of `Cc1nnc(COc2ccc3nc(N4CC(c5cnc(Nc6cnn(C)c6)c(C(N)=O)n5)C4)oc3c2)o1` [Example 86, 6-(1-{6-[(5-methyl-1,3,4-oxadiazol-2-yl)methoxy]-1,3-benzoxazol-2-yl}azetidin-3-yl)-3-[(1-methyl-1H-pyrazol-4-yl)amino]pyrazine-2-carboxamide], the IC50 on TYRO3 (455-end) was 63 nM; at human AXL (473-end) it was 11 nM; at human MER (528-end), 5 nM.

In the case of `Cn1cc(Nc2ncc(C3CN(c4nc5ccc(OCC6CC(O)C6)cc5o4)C3)nc2C(N)=O)cn1` (stereo not drawn) [Example 42, 6-(1-{6-[(3-hydroxycyclobutyl)methoxy]-1,3-benzoxazol-2-yl}azetidin-3-yl)-3-[(1-methyl-1H-pyrazol-4-yl)amino]pyrazine-2-carboxamide], the IC50 at TYRO3 (455-end) was 64 nM; on human AXL (473-end), 2 nM; at human MER (528-end), less than 1 nM.

Take `Cn1cc(Nc2ncc(C3CN(c4nc5ccc(C6=CCOCC6)cc5o4)C3)nc2C(N)=O)cn1` [Example 11, 6-{1-[6-(3,6-dihydro-2H-pyran-4-yl)-1,3-benzoxazol-2-yl]azetidin-3-yl}-3-[(1-methyl-1H-pyrazol-4-yl)amino]pyrazine-2-carboxamide]: the figures for the IC50 at TYRO3 (455-end), on human AXL (473-end) and on human MER (528-end) were 280 nM, 2 nM and 1 nM, respectively.

Regarding `Cn1cc(Nc2ncc(C3CN(c4nc5ccc(C6CCOC6)cc5o4)C3)nc2C(N)=O)cn1` (stereo not drawn) [Example 15, 3-[(1-methyl-1H-pyrazol-4-yl)amino]-6-{1-[6-(oxolan-3-yl)-1,3-benzoxazol-2-yl]azetidin-3-yl}pyrazine-2-carboxamide], the IC50 on TYRO3 (455-end) was found to be 550 nM; at human AXL (473-end), 9 nM; on human MER (528-end) it was 3 nM.

As for `NC(=O)c1nc(C2CN(c3nc4ccc(F)cc4o3)C2)cnc1Nc1cn[nH]c1` [Example 36C, 6-[1-(6-fluoro-1,3-benzoxazol-2-yl)azetidin-3-yl]-3-[(1H-pyrazol-4-yl)amino]pyrazine-2-carboxamide], the IC50 on TYRO3 (455-end) was more than 10000 nM; on human AXL (473-end) it was 3 nM; on human MER (528-end), 1 nM.

In the case of `Cn1cc(Nc2ncc(C3CN(c4nc5ccc(CCCO)cc5o4)C3)nc2C(N)=O)cn1` [Example 32, 6-{1-[6-(3-hydroxypropyl)-1,3-benzoxazol-2-yl]azetidin-3-yl}-3-[(1-methyl-1H-pyrazol-4-yl)amino]pyrazine-2-carboxamide], the IC50 at TYRO3 (455-end) was 190 nM; on human AXL (473-end), 3 nM; on human MER (528-end) it was 1 nM.

Regarding `Cn1cc(Nc2ncc(C3CN(c4nc5ccc(-c6ccccc6)cc5o4)C3)nc2C(N)=O)cn1` [Example 8, 3-[(1-methyl-1H-pyrazol-4-yl)amino]-6-[1-(6-phenyl-1,3-benzoxazol-2-yl)azetidin-3-yl]pyrazine-2-carboxamide], the IC50 on TYRO3 (455-end) is 280 nM; on human AXL (473-end), 7 nM; at human MER (528-end), 2 nM.

On to `CN1CCCC(Oc2ccc3nc(N4CC(c5cnc(Nc6cnn(C)c6)c(C(N)=O)n5)C4)oc3c2)C1=O` (stereo not drawn) [Example 76, 6-(1-{6-[(1-methyl-2-oxopiperidin-3-yl)oxy]-1,3-benzoxazol-2-yl}azetidin-3-yl)-3-[(1-methyl-1H-pyrazol-4-yl)amino]pyrazine-2-carboxamide], for which the IC50 was 240 nM at TYRO3 (455-end), 2 nM at human AXL (473-end) and less than 1 nM on human MER (528-end).

As to `CC(C)(O)CCOc1ccc2nc(N3CC(c4cnc(Nc5cnn(CC(C)(C)O)c5)c(C(N)=O)n4)C3)oc2c1` [Example 96, 6-{1-[6-(3-hydroxy-3-methylbutoxy)-1,3-benzoxazol-2-yl]azetidin-3-yl}-3-{[1-(2-hydroxy-2-methylpropyl)-1H-pyrazol-4-yl]amino}pyrazine-2-carboxamide], the IC50 is 1610 nM on TYRO3 (455-end), 12 nM on human AXL (473-end) and 3 nM on human MER (528-end).

As to `Cn1cc(Nc2ncc(C3CN(c4nc5ccc(CC(=O)N6CCCC6)cc5o4)C3)nc2C(N)=O)cn1` [Example 65, 3-[(1-methyl-1H-pyrazol-4-yl)amino]-6-(1-{6-[2-oxo-2-(pyrrolidin-1-yl)ethyl]-1,3-benzoxazol-2-yl}azetidin-3-yl)pyrazine-2-carboxamide], the IC50 on TYRO3 (455-end) was 1010 nM; on human AXL (473-end) it was 1 nM; at human MER (528-end) it was less than 1 nM.

In the case of `Cn1cc(Nc2ncc(C3CN(c4nc5ccc(-c6ccc(OCCO)cc6)cc5o4)C3)nc2C(N)=O)cn1` [Example 89, 6-(1-{6-[4-(2-hydroxyethoxy)phenyl]-1,3-benzoxazol-2-yl}azetidin-3-yl)-3-[(1-methyl-1H-pyrazol-4-yl)amino]pyrazine-2-carboxamide], the IC50 on TYRO3 (455-end) was 260 nM; at human AXL (473-end), 6 nM; on human MER (528-end), 1 nM.

In the case of `Cn1cc(Nc2ncc(C3CN(c4nc5ccc(OCC(=O)O)cc5o4)C3)nc2C(N)=O)cn1` [Example 73A, {[2-(3-f{6-carbamoyl-5-[(1-methyl-1H-pyrazol-4-yl)amino]pyrazin-2-yl}azetidin-1-yl)-1,3-benzoxazol-6-yl]oxy}acetic acid], the IC50 on human AXL (473-end) turned out to be 210 nM; at human MER (528-end) it was 150 nM.

In the case of `Cn1cc(Nc2ncc(C3CN(c4nc5ccc(/C=C/C(C)(C)O)cc5o4)C3)nc2C(N)=O)cn1` [Example 17, 6-(1-{6-[(1E)-3-hydroxy-3-methylbut-1-en-1-yl]-1,3-benzoxazol-2-yl}azetidin-3-yl)-3-[(1-methyl-1H-pyrazol-4-yl)amino]pyrazine-2-carboxamide], the IC50 amounted to 241 nM at TYRO3 (455-end) and 2 nM on human AXL (473-end).

Consider `Cn1cc(Nc2ncc(C3CN(c4nc5ccc(O)cc5o4)C3)nc2C(N)=O)cn1` [Example 20, 6-[I1-(6-hydroxy-1,3-benzoxazol-2-yl)azetidin-3-yl]-3-[(1-methyl-1H-pyrazol-4-yl)amino]pyrazine-2-carboxamide], for which the values for the IC50 at TYRO3 (455-end) and on human MER (528-end) were 980 nM and 29 nM, respectively.

Values taken from patent US20260232658A1, “AZETIDINYL BENZOXAZOLE COMPOUNDS AND THEIR USE AS MER AND AXL INHIBITORS” (DONG-A ST CO., LTD., priority 2022, published 2026).
